Structures can show the parent of a compound that is named as a salt.

One test deals with T1, Human full-length CaMKIIδ (Homo sapiens, UniProt Q13557).
T1 construct: Human full-length CaMKIIδ (Cat #02-111) was obtained from Carna Biosciences; GST; purchased Carna Biosciences 02-111
The test is described as follows: Human CaMKII enzyme inhibition assay (radiometric kinase assay). It is filed as biochemical. The settings on record: 3 μM compound; 500 nM ATP; 0.5 nM CaMKIIδ. The method, then: In Vitro CaMKIIδ Inhibitory Activity was Evaluated by an Enzyme Assay.
Human CaMKII Enzyme Inhibition Assay
Kinase assay for CaMKIIs was performed using the radiometric assay. Human full-length CaMKIIδ (Cat #02-111) was obtained from Carna Biosciences (Kobe, Japan).
Enzyme reactions were performed in 25 mM HEPES, pH 7.5, with 5 mM magnesium chloride, 1 mM calcium chloride, 10 μg/mL Calmodulin, 2 mM DTT, 0.01% Tween20 and 500 nM ATP (0.2 μCi/well of [γ-33P] ATP) containing 0.5 nM CaMKIIδ and 0.1 μM autophosphorylation peptide (KKALRRQETVDAL)(Toray Research Center).
After incubating the enzyme, peptide, and compounds for 5 min, kinase reactions were initiated by adding ATP, followed by incubation for 60 min at room temperature in a total volume of 50 μL. The reactions were terminated by the addition of 10% trichloroacetic acid (final concentration). The [γ-33P]-phosphorylated proteins were filtered in a Harvest Plate (Merck Millipore) with a Cell Harvester (PerkinElmer) and then free [γ-33P] ATP was washed out with 3% phosphoric acid. The plates were dried, followed by the addition of 40 μl of MicroScintO (PerkinElmer). The radioactivity was counted by a TopCount scintillation counter (PerkinElmer). The signals of the reaction without enzyme were defined as 100% inhibitory activity and those of the reaction without inhibitors as 0% inhibitory activity. In vitro CaMKIIδ inhibitory activity was evaluated by % inhibitory activity of 3 μM compound concentration.
On to `COc1cc(N2CCC(N3CCOCC3)CC2)ccc1Nc1ncc(-c2ccc(C#N)c(O[C@@H](C)Cn3cnnn3)c2)cn1` [Example 9, 4-(2-((2-methoxy-4-(4-(morpholin-4-yl)piperidin-1-yl)phenyl)amino)pyrimidin-5-yl)-2-(((2S)-1-(1H-tetrazol-1-yl)propan-2-yl)oxy)benzonitrile], for which the “CaMKIIδ inhibitory activity (%) at 3 μM” value amounted to 99%.

The same test, now with this note: 3 μM compound; 500 nM ATP; 0.5 nM CaMKIIδ; hydrochloride.
As to `COc1cc(N2CCC(N3CCOCC3)CC2)ccc1Nc1ncc(-c2ccc(C#N)c(O[C@@H](C)Cn3cncn3)c2)cn1` [Example 8, 4-(2-((2-methoxy-4-(4-(morpholin-4-yl)piperidin-1-yl)phenyl)amino)pyrimidin-5-yl)-2-(((2S)-1-(1H-1,2,4-triazol-1-yl)propan-2-yl)oxy)benzonitrile hydrochloride], the “CaMKIIδ inhibitory activity (%) at 3 μM” value came out at 98%.

Staying with this test, now noted: 3 μM compound; 500 nM ATP; 0.5 nM CaMKIIδ; read-out: CaMKIIδ inhibitory activity (%) at 3 μM.
`COc1cc(N2CCC(N3CCOCC3)CC2)ccc1Nc1ncc(-c2ccc(C#N)c(O[C@@H](C)Cn3cnnn3)c2)cn1` [Example 10, 4-(2-((2-methoxy-4-(4-(morpholin-4-yl)piperidin-1-yl)phenyl)amino)pyrimidin-5-yl)-2-(((2S)-1-(1H-tetrazol-1-yl)propan-2-yl)oxy)benzonitrile hydrochloride]: the inhibition at 3 µM came to 98%.
The same measure, in the same setting: next, `COc1ccccc1Nc1ncc(-c2ccc(C#N)c(O[C@@H](C)Cn3cnnn3)c2)cn1` [Example 16, 4-(2-((2-methoxy-phenyl)amino)pyrimidin-5-yl)-2-(((2S)-1-(1H-tetrazol-1-yl)propan-2-yl)oxy)benzonitrile]: 99%.
With `COc1cc(N2CCC(N3CCOCC3)CC2)ccc1Nc1ncc(-c2ccc(C#N)c(O[C@@H](C)Cn3cnnc3)c2)cn1` [Example 17, 4-(2-((2-methoxy-4-(4-(morpholin-4-yl)piperidin-1-yl)phenyl)amino)pyrimidin-5-yl)-2-(((2S)-1-(4H-1,2,4-triazol-4-yl)propan-2-yl)oxy)benzonitrile], the inhibition at 3 µM was determined as 98%.
The same measure, in the same setting: next, `COc1cc(CNC2CC2)ccc1Nc1ncc(-c2ccc(C#N)c(O[C@@H](C)Cn3cncn3)c2)cn1` [Example 33, 4-(2-((4-((cyclopropylami-no)methyl)-2-methoxy-phenyl)amino)pyrimidin-5-yl)-2-(((2S)-1-(1H-1,2,4-triazol-1-yl)propan-2-yl)oxy)benzonitrile dihydrochloride]: 98%; `COc1cc(N2CCC(N3CCNCC3)CC2)ccc1Nc1ncc(-c2ccc(C#N)c(O[C@@H](C)Cn3cnnn3)c2)cn1` [Example 34]: 99%; `COc1cc(N2CCC(N3CCOCC3)CC2)ccc1Nc1ncc(-c2ccc(C#N)c(O[C@@H](C)Cn3ccnc3)c2)cn1` [Example 39, 2-(((2S)-1-(1H-imidazol-1-yl)propan-2-yl)oxy)-4-(2-((2-methoxy-4-(4-(morpholin-4-yl)piperidin-1-yl)phenyl)amino)pyrimidin-5-yl)benzonitrile]: 98%.
On the same count and under the same terms, for `COc1cc(N2CCC(N3CCCCC3)CC2)ccc1Nc1ncc(-c2ccc(C#N)c(O[C@@H](C)Cn3cnnn3)c2)cn1` [Example 45, 4-(2-((4-(1,4′-bipiperidine-1′-yl)-2-methoxyphenyl)amino)pyrimidin-5-yl)-2-(((2S)-1-(1H-tetrazol-1-yl)propan-2-yl)oxy)benzonitrile] the value was 99%; for `COc1cc(C2CCNCC2)ccc1Nc1ncc(-c2ccc(C#N)c(O[C@@H](C)Cn3cncn3)c2)cn1` [Example 50, 4-(2-((2-methoxy-4-(piperidin-4-yl)phenyl)amino)pyrimidin-5-yl)-2-(((2S)-1-(1H-1,2,4-triazol-1-yl)propan-2-yl)oxy)benzonitrile], 99%.
Still for that read-out and setting: for `COc1cc(CNC2CC2)ccc1Nc1ncc(-c2ccc(C#N)c(O[C@@H](C)Cn3cnnn3)c2)cn1` [Example 52, 4-(2-((4-((cyclopropylami-no)methyl)-2-methoxy-phenyl)amino)pyrimidin-5-yl)-2-(((2S)-1-(1H-tetrazol-1-yl)propan-2-yl)oxy)benzonitrile hydrochloride] the value was 100%.
With `COc1nc(N2CCC(N3CCOCC3)CC2)ncc1Nc1ncc(-c2ccc(C#N)c(O[C@@H](C)Cn3cnnn3)c2)cn1` [Example 56, 4-(2-((4-methoxy-2-(4-(morpholin-4-yl)piperidin-1-yl)pyrimidin-5-yl)amino)pyrimidin-5-yl)-2-(((2S)-1-(1H-tetrazol-1-yl)propan-2-yl)oxy)benzonitrile], the inhibition at 3 µM worked out at 98%.
Same read-out and setting: for `COc1cc(N2CCC(N3CCOCC3)CC2)ncc1Nc1ncc(-c2ccc(C#N)c(O[C@@H](C)Cn3cnnn3)c2)cn1` [Example 57, 4-(2-((4-methoxy-6-(4-(morpholin-4-yl)piperidin-1-yl)pyridin-3-yl)amino)pyrimidin-5-yl)-2-(((2S)-1-(1H-tetrazol-1-yl)propan-2-yl)oxy)benzonitrile] the value was 99%; for `COc1cc(N2CCC(N3CCOCC3)CC2)ccc1Nc1ncc(-c2ccc(Cl)c(O[C@@H](C)Cn3ccnc3)c2)cn1` [Example 58, 5-(4-chloro-3-(((2S)-1-(1H-imidazol-1-yl)propan-2-yl)oxy)phenyl)-N-(2-methoxy-4-(4-(morpholin-4-yl)piperidin-1-yl)phenyl)pyrimidin-2-amine], 99%.
In the case of `COc1cc(N2CCC(N3CCOCC3)CC2)ccc1Nc1ncc(-c2ccc(Cl)c(O[C@@H](C)Cn3cnnn3)c2)cn1` [Example 60, 5-(4-chloro-3-(((2S)-1-(1H-tetrazol-1-yl)propan-2-yl)oxy)phenyl)-N-(2-methoxy-4-(4-(morpholin-4-yl)piperidin-1-yl)phenyl)pyrimidin-2-amine], the inhibition at 3 µM was found to be 99%.
On the same count and under the same terms, for `COc1cc(C(=O)N2CCOCC2)ccc1Nc1ncc(-c2ccc(C#N)c(O[C@@H](C)Cn3cncn3)c2)cn1` [Example 72, 4-(2-((2-methoxy-4-(morpholin-4-ylcar-bonyl)phenyl)amino)pyrimidin-5-yl)-2-(((2S)-1-(1H-1,2,4-triazol-1-yl)propan-2-yl)oxy)benzonitrile] the value was 97%.
The same measure, in the same setting: for `COc1cc(C(=O)N2CCN(C)CC2)ccc1Nc1ncc(-c2ccc(C#N)c(O[C@@H](C)Cn3cncn3)c2)cn1` [Example 73, 4-(2-((2-methoxy-4-((4-methylpiperazin-1-yl)car-bonyl)phenyl)amino)pyrimidin-5-yl)-2-(((2S)-1-(1H-1,2,4-triazol-1-yl)propan-2-yl)oxy)benzonitrile] the value was 97%; for `COc1cc(C2CCN(C3COC3)CC2)ccc1Nc1ncc(-c2ccc(C#N)c(O[C@@H](C)Cn3cnnn3)c2)cn1` [Example 75, 4-(2-((2-methoxy-4-(1-(oxetan-3-yl)piperidin-4-yl)phenyl)amino)pyrimidin-5-yl)-2-(((2S)-1-(1H-tetrazol-1-yl)propan-2-yl)oxy)benzonitrile], 98%; for `COc1cc(C(=O)N2CCOCC2)ccc1Nc1ncc(-c2ccc(C#N)c(O[C@@H](C)Cn3cnnn3)c2)cn1` [Example 82, 4-(2-((2-methoxy-4-(morpholin-4-ylcar-bonyl)phenyl)amino)pyrimidin-5-yl)-2-(((2S)-1-(1H-tetrazol-1-yl)propan-2-yl)oxy)benzonitrile], 98%.
Same read-out and setting: next, `COCCN1CCC(c2ccc(Nc3ncc(-c4ccc(C#N)c(O[C@@H](C)Cn5cnnn5)c4)cn3)c(OC)c2)CC1` [Example 85, 4-(2-((2-methoxy-4-(1-(2-methoxyethyl)piperidin-4-yl)phenyl)amino)pyrimidin-5-yl)-2-(((2S)-1-(1H-tetrazol-1-yl)propan-2-yl)oxy)benzonitrile]: 98%; `COc1cc(C(=O)NC2CCOCC2)ccc1Nc1ncc(-c2ccc(C#N)c(O[C@@H](C)Cn3cnnn3)c2)cn1` [Example 87, 4-((5-(4-cyano-3-(((2S)-1-(1H-tetrazol-1-yl)propan-2-yl)oxy)phenyl)pyrimidin-2-yl)amino)-3-methoxy-N-(tetrahydro-2H-pyran-4-yl)benzamide]: 98%; `COc1cc(C(=O)N2CC3(CN(C)C3)C2)ccc1Nc1ncc(-c2ccc(C#N)c(O[C@@H](C)Cn3cncn3)c2)cn1` [Example 147, 4-(2-((2-methoxy-4-((6-methyl-2,6-diazaspiro[3.3]hept-2-yl)carbonyl)phenyl)ami-no)pyrimidin-5-yl)-2-(((2S)-1-(1H-1,2,4-triazol-1-yl)propan-2-yl)oxy)benzonitrile]: 95%.
Take `COc1cc(C(=O)N2CCC(OC)CC2)ccc1Nc1ncc(-c2ccc(C#N)c(O[C@@H](C)Cn3cnnn3)c2)cn1` [Example 152, 4-(2-((2-methoxy-4-((4-methoxypiperidin-1-yl)carbonyl)phenyl)ami-no)pyrimidin-5-yl)-2-(((2S)-1-(1H-tetrazol-1-yl)propan-2-yl)oxy)benzonitrile]: the inhibition at 3 µM came out at 98%.
